Assay results from patent US20240376091A1, “THIADIAZOLEAMIDE DERIVATIVES AND THEIR APPLICATIONS” (ZHEJIANG UNIVERSITY, priority 2021, published 2024).

What was measured:
[1] = target: T1, FL-AR^V684A (Homo sapiens, UniProt P10275, V685A); assay: Luciferase reporter assay in PC3 cells, AR V684A; type: cell-based; conditions: read-out: IC50 toward FL-AR^V684A
T1 construct: toward full-length (FL)-AR^WT and FL-AR^V684A; expressed in transfected cells; host or cells: PC3
T1 sequence (P10275 1-920 V685A): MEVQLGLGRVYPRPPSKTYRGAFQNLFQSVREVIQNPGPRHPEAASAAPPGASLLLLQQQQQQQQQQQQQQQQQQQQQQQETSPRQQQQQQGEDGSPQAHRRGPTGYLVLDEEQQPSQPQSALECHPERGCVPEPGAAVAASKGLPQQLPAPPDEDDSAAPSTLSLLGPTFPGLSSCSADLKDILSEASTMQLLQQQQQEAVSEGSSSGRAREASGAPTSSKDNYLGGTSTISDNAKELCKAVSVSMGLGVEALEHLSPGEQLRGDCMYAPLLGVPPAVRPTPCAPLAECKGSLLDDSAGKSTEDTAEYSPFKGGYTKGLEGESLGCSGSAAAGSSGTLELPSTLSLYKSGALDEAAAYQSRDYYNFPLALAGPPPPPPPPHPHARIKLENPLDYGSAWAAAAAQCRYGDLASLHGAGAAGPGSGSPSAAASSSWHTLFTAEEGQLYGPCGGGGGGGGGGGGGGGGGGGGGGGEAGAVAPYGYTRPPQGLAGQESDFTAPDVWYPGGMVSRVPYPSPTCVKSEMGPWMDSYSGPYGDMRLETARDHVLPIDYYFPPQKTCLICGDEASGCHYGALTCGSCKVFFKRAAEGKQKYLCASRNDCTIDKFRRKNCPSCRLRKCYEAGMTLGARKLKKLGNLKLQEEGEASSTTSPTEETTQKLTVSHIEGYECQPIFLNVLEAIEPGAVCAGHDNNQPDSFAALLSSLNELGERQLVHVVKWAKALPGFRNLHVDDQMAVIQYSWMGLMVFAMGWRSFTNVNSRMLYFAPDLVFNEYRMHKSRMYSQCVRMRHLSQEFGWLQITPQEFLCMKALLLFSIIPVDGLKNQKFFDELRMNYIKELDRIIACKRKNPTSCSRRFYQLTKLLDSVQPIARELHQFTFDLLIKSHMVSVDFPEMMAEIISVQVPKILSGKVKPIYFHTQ
Procedure: Detection principles: A reporter system for detecting the activities of firefly luciferase. To quantitatively detect the interaction between transcription factors and target promoters, the fluorescent intensities are detected to quantitatively evaluate the activities of firefly luciferase.
Methods: PC3 cells (no endogenous AR) treated with DMEM media supplemented with 5% CSS for 48 hours. Then, the PC3 cells (1.2×10^4/well) were seeded into 96-well plates. After 16 hours, the PC3 cells were transfected with 20 ng/well plasmid and incubated for 20 min at room temperature. After 1 day incubation, the media in the wells was replaced, followed by the addition of various concentrations of compounds. After 48 hours, the culture medium was discarded and the cells were washed with 100 μL PBS, followed by addition of 30 μL 1×PLB and the 96-well plates was shaken on a shaker for 20 min to ensure complete lysis of the cells. Then, the cell lysis supernatant (20 μL/well) was transferred to a white opaque 96-well, and addition of 30 μL Luciferase Assay Reagent II to each well. Then, the fluorescent intensities of firefly luciferase were evaluated. Afterwards, 30 μL Stop&Glo Reagant was added to the wells, and the fluorescent intensities of […] evaluated.

[2] = target: T2, AR-LBD dimer (Homo sapiens, UniProt P10275); assay: Small-angle X-ray scattering (SAXS) of AR-LBD dimerization; conditions: AR-LBD 35 μM, DHT 10 μM, Enzalutamide 105 μM, A-1 105 μM
T2 sequence (P10275 669-900 limits assumed): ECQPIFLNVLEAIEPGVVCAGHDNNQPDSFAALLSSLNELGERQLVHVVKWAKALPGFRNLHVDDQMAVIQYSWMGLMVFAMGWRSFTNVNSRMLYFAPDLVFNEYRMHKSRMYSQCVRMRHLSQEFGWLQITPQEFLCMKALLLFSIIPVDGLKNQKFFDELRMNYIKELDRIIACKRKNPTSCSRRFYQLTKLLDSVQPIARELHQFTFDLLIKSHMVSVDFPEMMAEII
Excerpt: Detection principles: SAXS is a vital technique for detecting conformational changes of biomacromolecule by quantitatively evalucate the overall dimension and shape silhouette of biomacromolecule.
The SAXS scattering signal were collected for 20 frames (1 second exposure time) using the BL19U2 beamline. The ATSAS software were applied to analysis the results.

[3] = test system: LNCaP xenograft; conditions: mouse, in vivo
Procedure: Methods: LNCaP cells were injected to the Male CB17 SCID mice (6-8 weeks old). Once tumor size reached target value, the mice were randomized into three groups with 6-8 mice per group. […] The mice weight and tumor volume were periodically recorded. Finally, the tumors were harvested.

CC(=O)Cc1nsc(NC(=O)c2cc(-c3cccc(C(F)(F)F)c3)oc2C)n1 [Compound A-1, 2-Methyl-N-(3-(2-oxopropyl)-1,2,4-thiadiazol-5-yl)-5-(3-(trifluoromethyl)phenyl)furan-3-carboxamide]
IC50 [1]: 60 nM
AR-LBD dimerization [2]: inhibits AR-LBD dimerization
mortality [3]: no mortality
